Measured values as given in patent US9815839B2, “N-(1-(substituted-phenyl)ethyl)-9H-purin-6-amines as PI3K inhibitors” (Incyte Corporation, priority 2010, dated 2017).
Counter-ions that a name gives are not always drawn.

What follows are molecules tested against T1, PI3Kδ (p110δ/p85α) (Homo sapiens, UniProt O00329) (assay: PI3Kδ scintillation proximity assay). Details: 20 μM ATP, 4 nM PI3Kδ.
T1 construct: purchased Millipore (Bedford, Mass.)
Assay type: biochemical
Excerpt: Example A: PI3Kδ Scintillation Proximity Assay
Materials: [γ-^33P]ATP (10 mCi/mL) was purchased from Perkin-Elmer (Waltham, Mass.). Lipid kinase substrate, D-myo-Phosphatidylinositol 4,5-bisphosphate (PtdIns(4,5)P2)D (+)-sn-1,2-di-O-octanoylglyceryl, 3-O-phospho linked (PIP2), CAS 204858-53-7, was purchased from Echelon Biosciences (Salt Lake City, Utah). PI3Kδ (p110δ/p85α) was purchased from Millipore (Bedford, Mass.). ATP, MgCl2, DTT, EDTA, MOPS and CHAPS were purchased from Sigma-Aldrich (St. Louis, Mo.). Wheat Germ Agglutinin (WGA) YSi SPA Scintillation Beads was purchased from GE healthcare life sciences (Piscataway, N.J.).
The kinase reaction was conducted in polystyrene 384-well matrix white plate from Thermo Fisher Scientific in a final volume of 25 μL. Inhibitors were first diluted serially in DMSO and added to the plate wells before the addition of other reaction components. The final concentration of DMSO in the assay was 0.5%. The PI3K assays were carried out at room temperature in 20 mM MOPS, pH 6.7, 10 mM MgCl2, 5 mM DTT and CHAPS 0.03%. Reactions were initiated by the addition of ATP, the final reaction mixture consisted of 20 μM PIP2,20 μM ATP, 0.2 μCi [γ-^33P] ATP, 4 nM PI3Kδ. Reactions were incubated for 210 minutes and terminated by the addition of 40 μL SPA beads suspended in quench buffer: 150 mM potassium phosphate pH 8.0, 20% glycerol. 25 mM EDTA, 400 µM ATP. The final concentration of SPA beads is 1.0 mg/mL. After the plate sealing, plates were shaken overnight at room temperature and centrifuged at 1800 rpm for 10 minutes, the radioactivity of the product was determined by scintillation counting on Topcount (Perkin-Elmer). IC50 determination was performed by fitting the curve of percent control activity versus the log of the inhibitor concentration using the GraphPad Prism 3.0 software.

T1 sequence (O00329 whole entry, species assumed): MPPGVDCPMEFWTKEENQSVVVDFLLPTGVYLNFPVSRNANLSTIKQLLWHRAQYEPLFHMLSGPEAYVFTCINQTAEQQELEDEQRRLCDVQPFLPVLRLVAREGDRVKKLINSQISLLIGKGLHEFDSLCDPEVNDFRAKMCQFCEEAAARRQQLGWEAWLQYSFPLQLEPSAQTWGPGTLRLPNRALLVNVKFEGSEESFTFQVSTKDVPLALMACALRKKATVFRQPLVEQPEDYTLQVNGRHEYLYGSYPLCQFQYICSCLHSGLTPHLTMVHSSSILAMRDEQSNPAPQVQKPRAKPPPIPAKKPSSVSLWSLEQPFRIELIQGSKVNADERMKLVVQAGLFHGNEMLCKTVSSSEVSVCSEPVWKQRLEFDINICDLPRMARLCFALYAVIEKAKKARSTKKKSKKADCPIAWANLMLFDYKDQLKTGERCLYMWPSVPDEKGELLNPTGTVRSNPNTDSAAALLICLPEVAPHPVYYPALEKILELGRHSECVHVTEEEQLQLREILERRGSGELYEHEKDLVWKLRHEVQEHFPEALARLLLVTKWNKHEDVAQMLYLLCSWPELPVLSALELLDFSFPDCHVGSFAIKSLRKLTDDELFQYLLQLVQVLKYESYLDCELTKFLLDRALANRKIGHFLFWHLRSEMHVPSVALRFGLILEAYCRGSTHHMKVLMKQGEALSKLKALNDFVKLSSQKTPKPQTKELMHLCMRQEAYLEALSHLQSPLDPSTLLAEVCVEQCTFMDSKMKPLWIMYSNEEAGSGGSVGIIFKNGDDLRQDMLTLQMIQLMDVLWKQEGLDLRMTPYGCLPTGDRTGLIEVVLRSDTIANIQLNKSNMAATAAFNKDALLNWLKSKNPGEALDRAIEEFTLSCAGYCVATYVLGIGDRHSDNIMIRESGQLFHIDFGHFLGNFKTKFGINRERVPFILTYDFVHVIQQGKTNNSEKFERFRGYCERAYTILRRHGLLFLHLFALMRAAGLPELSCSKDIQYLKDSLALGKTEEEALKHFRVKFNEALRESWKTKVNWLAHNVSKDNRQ
T1 sequence (P27986 whole entry partner, species assumed): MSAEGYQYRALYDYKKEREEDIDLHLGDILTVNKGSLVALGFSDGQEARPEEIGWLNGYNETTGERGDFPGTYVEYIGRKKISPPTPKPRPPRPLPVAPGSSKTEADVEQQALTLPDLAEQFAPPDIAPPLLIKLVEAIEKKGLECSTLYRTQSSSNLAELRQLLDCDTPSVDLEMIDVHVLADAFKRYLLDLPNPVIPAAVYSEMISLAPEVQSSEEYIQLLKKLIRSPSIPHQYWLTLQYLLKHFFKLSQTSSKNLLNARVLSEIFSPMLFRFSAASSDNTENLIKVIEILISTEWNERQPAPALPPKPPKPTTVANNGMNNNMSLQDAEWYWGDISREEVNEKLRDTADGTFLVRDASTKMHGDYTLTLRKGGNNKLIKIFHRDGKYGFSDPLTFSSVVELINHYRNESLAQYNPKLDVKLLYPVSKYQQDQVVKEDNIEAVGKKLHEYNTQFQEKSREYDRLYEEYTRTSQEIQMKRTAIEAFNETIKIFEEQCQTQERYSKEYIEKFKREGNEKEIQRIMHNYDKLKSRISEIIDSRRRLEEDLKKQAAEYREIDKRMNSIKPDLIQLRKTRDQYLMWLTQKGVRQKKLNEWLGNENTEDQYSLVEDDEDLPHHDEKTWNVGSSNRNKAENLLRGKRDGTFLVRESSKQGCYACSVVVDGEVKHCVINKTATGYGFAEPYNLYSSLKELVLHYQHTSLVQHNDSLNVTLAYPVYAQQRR

Molecule	IC50 [nM]
CCC(Nc1ncnc2[nH]cnc12)c1cc(Cl)c(C)c(-c2cncc(S(C)(=O)=O)c2)c1OC (centres unmarked) [Example 182, N-(1-{5-chloro-2-methoxy-4-methyl-3-[5-(methylsulfonyl)pyridin-3-yl]phenyl}propyl)-9H-purin-6-amine bis(2,2,2-trifluoroacetate)]	< 50
COc1c(-c2ccnc(F)c2)cc(Cl)cc1C(C)Nc1ncnc2[nH]cnc12 (centres unmarked) [Example 145, N-{1-[5-chloro-3-(2-fluoropyridin-4-yl)-2-methoxyphenyl]ethyl}-9H-purin-6-amine]	< 50
COc1c(C(C)Nc2ncnc3[nH]cnc23)cc(Cl)c(C)c1C1CN(C(C)C)C(=O)O1 (centres unmarked) [Example 189, 5-{3-Chloro-6-methoxy-2-methyl-5-[1-(9H-purin-6-ylamino)ethyl]phenyl}-3-isopropyl-1,3-oxazolidin-2-one trifluoroacetate]	< 50
CC(=O)Nc1ccc(-c2cc(Cl)cc(C(C)Nc3ncnc4[nH]cnc34)c2-c2cc(F)cc(F)c2)cc1 (centres unmarked) [Example 130, N-{5′-chloro-3″,5″-difluoro-3′-[1-(9H-purin-6-ylamino)ethyl]-1,1′:2′,1″-terphenyl-4-yl}acetamide]	< 50
COc1c(C(C)Nc2ncnc3[nH]cnc23)cc(F)c(C)c1-c1ccnn1C (centres unmarked) [Example 122, N-{1-[5-fluoro-2-methoxy-4-methyl-3-(1-methyl-1H-pyrazol-5-yl)phenyl]ethyl}-9H-purin-6-amine]	250 to 500
COc1c(C(C)Nc2ncnc3[nH]cnc23)cc(Cl)c(C)c1C1CN(C(C)C)C(=O)CO1 (centres unmarked) [Example 191, 6-{3-Chloro-6-methoxy-2-methyl-5-[1-(9H-purin-6-ylamino)ethyl]phenyl}-4-isopropylmorpholin-3-one trifluoroacetate]	< 50
COc1c(C(C)Nc2ncnc3[nH]cnc23)cc(Cl)c(C)c1-c1ccc(Cl)cc1 (centres unmarked) [Example 99, N-[1-(4′,5-dichloro-2-methoxy-6-methylbiphenyl-3-yl)ethyl]-9H-purin-6-amine]	250 to 500
CNC(=O)c1cc(-c2c(C)c(Cl)cc(C(C)Nc3ncnc4[nH]cnc34)c2OC)cn1C (centres unmarked) [Example 175, 4-{3-Chloro-6-methoxy-2-methyl-5-[1-(9H-purin-6-ylamino)ethyl]phenyl}-N,1-dimethyl-1H-pyrrole-2-carboxamide]	< 50
COc1c(C(C)Nc2ncnc3[nH]cnc23)cc(F)c(C)c1-c1ccc(C(=O)NC2CC2)cc1 (centres unmarked) [Example 120, N-cyclopropyl-3′-fluoro-6′-methoxy-2′-methyl-5′-[1-(9H-purin-6-ylamino)ethyl]biphenyl-4-carboxamide]	50 to 100
CC(Nc1ncnc2[nH]cnc12)c1cc(Cl)cc(-c2ccncc2)c1-c1cc(F)cc(F)c1 (centres unmarked) [Example 131, N-[1-(4-chloro-3′,5′-difluoro-6-pyridin-4-ylbiphenyl-2-yl)ethyl]-9H-purin-6-amine]	< 50
COc1c(C(C)Nc2ncnc3[nH]cnc23)cc(Cl)c(F)c1CN1CCOCC1 (centres unmarked) [Example 188, N-{1-[5-Chloro-4-fluoro-2-methoxy-3-(morpholin-4-ylmethyl)phenyl]ethyl}-9H-purin-6-amine]	< 50
COc1c(C(C)Nc2ncnc3[nH]cnc23)cc(Cl)c(C)c1-c1ccc(C#N)nc1 (centres unmarked) [Example 58, 5-{3-chloro-6-methoxy-2-methyl-5-[1-(9H-purin-6-ylamino)ethyl]phenyl}pyridine-2-carbonitrile]	50 to 100
1-{3′-chloro-3-fluoro-6′-methoxy-2′-methyl-5′-[1-(9H-purin-6-ylamino)ethyl]biphenyl-4-yl]carbonyl)piperidin-4-ol [Example 69]	< 50
CC(Nc1ncnc2[nH]cnc12)c1cc(Cl)cc(-c2cnc(N)nc2)c1-c1cc(F)cc(F)c1 (centres unmarked) [Example 135, N-{1-[6-(2-amino-pyrimidin-5-yl)-4-chloro-3′,5′-difluorobiphenyl-2-yl]ethyl}-9H-purin-6-amine]	< 50
COc1cncc(-c2cc(Cl)cc(C(C)Nc3ncnc4[nH]cnc34)c2OC)c1 (centres unmarked) [Example 146, N-{1-[5-chloro-2-methoxy-3-(5-methoxy-pyridin-3-yl)phenyl]ethyl}-9H-purin-6-amine]	50 to 100
CNC(=O)N1CC(c2c(C)c(Cl)cc(C(C)Nc3ncnc4[nH]cnc34)c2OC)C1 (centres unmarked) [Example 168, 3-{3-Chloro-6-methoxy-2-methyl-5-[1-(9H-purin-6-ylamino)ethyl]phenyl}-N-methylazetidine-1-carboxamide trifluoroacetate]	< 50

Molecule	IC50 [nM]
COc1c(C(C)Nc2ncnc3[nH]cnc23)cc(Cl)c(Cl)c1C1CN(CC(F)F)C1 (centres unmarked) [Example 210, N-(1-{4,5-Dichloro-3-[1-(2,2-difluoroethyl)azetidin-3-yl]-2-methoxyphenyl}ethyl)-9H-purin-6-amine bis(trifluoroacetate)]	< 50
CC(Nc1ncnc2[nH]cnc12)c1cc(Cl)cc(-c2cc(F)nc(F)c2)c1-c1cc(F)cc(F)c1 (centres unmarked) [Example 133, N-{1-[4-chloro-6-(2,6-difluoropyridin-4-yl)-3′,5′-difluorobiphenyl-2-yl]ethyl}-9H-purin-6-amine]	50 to 100
COc1ccc(-c2cc(Cl)cc(C(C)Nc3ncnc4[nH]cnc34)c2OC)cn1 (centres unmarked) [Example 148, N-{1-[5-chloro-2-methoxy-3-(6-methoxypyridin-3-yl)phenyl]ethyl}-9H-purin-6-amine]	50 to 100
COc1ccc(-c2c(C)c(Cl)cc(C(C)Nc3ncnc4[nH]cnc34)c2OC)cc1 (centres unmarked) [Example 101]	100 to 250
COc1c(C(C)Nc2ncnc3[nH]cnc23)cc(Cl)c(C)c1-c1cncc(C#N)c1 (centres unmarked) [Example 114, 5-{3-chloro-6-methoxy-2-methyl-5-[1-(9H-purin-6-ylamino)ethyl]phenyl}nicotinonitrile]	< 50
CC(=O)Nc1ccc(-c2c(C)c(Cl)cc(C(C)Nc3ncnc4[nH]cnc34)c2OCCN2CCOCC2)cn1 (centres unmarked) [Example 158, N-(5-{3-chloro-2-methyl-6-(2-morpholin-4-ylethoxy)-5-[1-(9H-purin-6-yl-amino)ethyl]-phenyl}-pyridin-2-yl)acetamide]	< 50
COc1c(-c2cncc(Cl)c2)cc(Cl)cc1C(C)Nc1ncnc2[nH]cnc12 (centres unmarked) [Example 125, N-{1-[5-Chloro-3-(5-chloropyridin-3-yl)-2-methoxyphenyl]ethyl}-9H-purin-6-amine]	50 to 100
COc1c(C(C)Nc2ncnc3[nH]cnc23)cc(Cl)c(C)c1C1CC(=O)N(C)C1 (single isomer, unassigned) [Example 193, 4-{3-chloro-6-methoxy-2-methyl-5-[1-(9H-purin-6-ylamino)ethyl]phenyl}-1-methylpyrrolidin-2-one]	< 50
CCOc1c(C(C)Nc2ncnc3[nH]cnc23)cc(Cl)c(C#N)c1C1CN(C(C)C)C1 (single isomer, unassigned) [Example 214, 6-Chloro-3-ethoxy-2-(1-isopropylazetidin-3-yl)-4-[1-(9H-purin-6-ylamino)ethyl]benzonitrile bis(trifluoroacetate)]	< 50
CC(Nc1ncnc2[nH]cnc12)c1cc(Cl)cc(-c2ccc(S(C)(=O)=O)cc2)c1-c1cc(F)cc(F)c1 (centres unmarked) [Example 134, N-{1-[5′-chloro-3″,5″-difluoro-4-(methyl-sulfonyl)-1,1′:2′,1″-terphenyl-3′-yl]ethyl}-9H-purin-6-amine]	< 50
COc1ncc(-c2c(C)c(Cl)cc(C(C)Nc3ncnc4[nH]cnc34)c2OCCN2CCOCC2)cn1 (centres unmarked) [Example 161, N-{1-[5-chloro-3-(2-methoxy-pyrimidin-5-yl)-4-methyl-2-(2-morpholin-4-yl-ethoxy)-phenyl]-ethyl}-9H-purin-6-amine]	< 50
COc1cccc(-c2c(C)c(Cl)cc(C(C)Nc3ncnc4[nH]cnc34)c2OC)c1 (centres unmarked) [Example 103]	< 50
Cc1c(Cl)cc(C(C)Nc2ncnc3[nH]cnc23)c(OCCN2CCOCC2)c1-c1ccc(S(C)(=O)=O)cc1 (centres unmarked) [Example 128, N-{1-[5-Chloro-6-methyl-4′-(methylsulfonyl)-2-(2-morpholin-4-ylethoxy)biphenyl-3-yl]ethyl}-9H-purin-6-amine]	< 50
Cc1c(Cl)cc(C(C)Nc2ncnc3[nH]cnc23)c(OCCN2CCOCC2)c1-c1ccnn1C (centres unmarked) [Example 152, N-{1-[5-chloro-4-methyl-3-(1-methyl-1H-pyrazol-5-yl)-2-(2-morpholin-4-ylethoxy)-phenyl]-ethyl}-9H-purin-6-amine]	< 50
COc1c(C(C)Nc2ncnc3[nH]cnc23)cc(Cl)c(F)c1C1CN(C(C)C)C1 (centres unmarked) [Example 172, N-{1-[5-Chloro-4-fluoro-3-(1-isopropylazetidin-3-yl)-2-methoxyphenyl]ethyl}-9H-purin-6-amine bis(trifluoroacetate)]	< 50
COc1c(C(C)Nc2ncnc3[nH]cnc23)cc(Cl)c(C)c1-c1cncc(F)c1 (centres unmarked) [Example 108, N-{1-[5-Chloro-3-(5-fluoropyridin-3-yl)-2-methoxy-4-methylphenyl]ethyl}-9H-purin-6-amine]	< 50
